Data published in ChEMBL document CHEMBL4619713, “Novel PDE5 inhibitors derived from rutaecarpine for the treatment of Alzheimer's disease” (Bioorg Med Chem Lett, 2020).
pIC50: −log10 of the molar value. The source made the active and inactive calls. No cut-off for these calls is given here.

Experiments:
[1] = biological target: cGMP-specific 3',5'-cyclic phosphodiesterase (Homo sapiens, UniProt O76074); assay: Inhibition of PDE5A (unknown origin)
Mus musculus [2] = assay: Cognitive enhancing effect in mouse mouse model of scopolamine-induced cognition deficit assessed as decrease in frequent error at 5 and 10 mg/kg by water maze test; type: functional, organism-based
Mus musculus [3] = assay: Cognitive enhancing effect in mouse mouse model of scopolamine-induced cognition deficit assessed as reduction in escape latency at 5 and 10 mg/kg by water maze test; type: functional, organism-based
Homo sapiens [4] = species on record: Homo sapiens; assay: Selectivity index, ratio of IC50 for PDE4 (unknown origin) to IC50 for PDE5A (unknown origin)
Homo sapiens [5] = species on record: Homo sapiens; assay: Selectivity index, ratio of IC50 for PDE6 (unknown origin) to IC50 for PDE5A (unknown origin)
Phosphodiesterase 4 = Phosphodiesterase 4 (Homo sapiens, UniProt P27815+Q08499+Q07343+Q08493); assay: Inhibition of PDE4 (unknown origin); type: protein assay
Homo sapiens [6] = species on record: Homo sapiens; assay: Selectivity index, ratio of IC50 for PDE2 (unknown origin) to IC50 for PDE5A (unknown origin)
Phosphodiesterase 6 = assay: Inhibition of PDE6 (unknown origin); type: protein assay, Homo sapiens
[7] = biological target: cAMP and cAMP-inhibited cGMP 3',5'-cyclic phosphodiesterase 10A (Homo sapiens, UniProt Q9Y233); assay: Inhibition of PDE10 (unknown origin)
Sequence of cAMP and cAMP-inhibited cGMP 3',5'-cyclic phosphodiesterase 10A (Q9Y233 whole entry): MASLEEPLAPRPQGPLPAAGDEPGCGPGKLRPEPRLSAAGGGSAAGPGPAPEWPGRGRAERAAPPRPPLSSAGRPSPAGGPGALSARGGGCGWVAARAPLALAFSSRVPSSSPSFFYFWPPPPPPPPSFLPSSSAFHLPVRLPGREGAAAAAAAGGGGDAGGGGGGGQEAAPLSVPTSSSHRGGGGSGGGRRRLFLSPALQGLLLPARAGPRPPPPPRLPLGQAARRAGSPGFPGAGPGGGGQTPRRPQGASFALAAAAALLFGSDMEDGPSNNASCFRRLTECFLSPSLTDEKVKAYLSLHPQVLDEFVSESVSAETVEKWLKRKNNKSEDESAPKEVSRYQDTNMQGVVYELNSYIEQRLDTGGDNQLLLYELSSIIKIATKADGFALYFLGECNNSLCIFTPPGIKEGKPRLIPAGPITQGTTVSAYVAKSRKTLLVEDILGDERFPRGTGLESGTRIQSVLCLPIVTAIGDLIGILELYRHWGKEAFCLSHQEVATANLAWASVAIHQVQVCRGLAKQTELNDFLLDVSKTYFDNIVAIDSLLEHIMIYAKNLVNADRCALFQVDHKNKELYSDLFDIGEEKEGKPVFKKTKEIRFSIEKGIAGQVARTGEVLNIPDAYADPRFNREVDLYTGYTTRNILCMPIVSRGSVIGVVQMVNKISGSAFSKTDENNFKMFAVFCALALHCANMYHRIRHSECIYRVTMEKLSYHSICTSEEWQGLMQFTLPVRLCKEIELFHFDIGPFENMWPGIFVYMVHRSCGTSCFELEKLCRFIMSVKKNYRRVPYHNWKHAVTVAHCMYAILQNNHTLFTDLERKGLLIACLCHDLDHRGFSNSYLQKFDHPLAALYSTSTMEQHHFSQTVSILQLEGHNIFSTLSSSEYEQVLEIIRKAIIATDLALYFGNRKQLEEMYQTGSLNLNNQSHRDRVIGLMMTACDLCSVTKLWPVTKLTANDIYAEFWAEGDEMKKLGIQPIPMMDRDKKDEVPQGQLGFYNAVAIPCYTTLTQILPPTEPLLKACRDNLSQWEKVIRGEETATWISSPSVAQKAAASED

Homo sapiens [8] = species on record: Homo sapiens; assay: Selectivity index, ratio of IC50 for PDE9 (unknown origin) to IC50 for PDE5A (unknown origin)
[9] = biological target: High affinity cGMP-specific 3',5'-cyclic phosphodiesterase 9A (Homo sapiens, UniProt O76083); assay: Inhibition of PDE9 (unknown origin)
Sequence of High affinity cGMP-specific 3',5'-cyclic phosphodiesterase 9A (O76083 whole entry): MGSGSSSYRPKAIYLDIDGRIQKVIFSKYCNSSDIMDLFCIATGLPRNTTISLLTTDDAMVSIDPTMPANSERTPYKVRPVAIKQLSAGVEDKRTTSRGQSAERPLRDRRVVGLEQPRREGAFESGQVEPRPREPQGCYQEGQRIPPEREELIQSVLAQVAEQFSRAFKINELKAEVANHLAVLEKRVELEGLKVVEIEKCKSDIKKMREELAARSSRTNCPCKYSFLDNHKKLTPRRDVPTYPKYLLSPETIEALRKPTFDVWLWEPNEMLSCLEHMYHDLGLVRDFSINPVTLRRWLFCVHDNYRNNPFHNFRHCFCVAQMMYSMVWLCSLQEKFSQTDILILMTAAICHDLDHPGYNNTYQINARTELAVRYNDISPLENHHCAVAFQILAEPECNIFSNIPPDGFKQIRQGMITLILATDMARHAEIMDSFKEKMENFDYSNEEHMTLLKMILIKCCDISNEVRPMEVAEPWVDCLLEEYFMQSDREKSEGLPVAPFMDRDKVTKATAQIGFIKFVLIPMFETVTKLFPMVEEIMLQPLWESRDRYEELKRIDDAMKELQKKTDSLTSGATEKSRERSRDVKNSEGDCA

[10] = biological target: cGMP-dependent 3',5'-cyclic phosphodiesterase (Homo sapiens, UniProt O00408); assay: Inhibition of PDE2 (unknown origin)
Sequence of cGMP-dependent 3',5'-cyclic phosphodiesterase (O00408 whole entry): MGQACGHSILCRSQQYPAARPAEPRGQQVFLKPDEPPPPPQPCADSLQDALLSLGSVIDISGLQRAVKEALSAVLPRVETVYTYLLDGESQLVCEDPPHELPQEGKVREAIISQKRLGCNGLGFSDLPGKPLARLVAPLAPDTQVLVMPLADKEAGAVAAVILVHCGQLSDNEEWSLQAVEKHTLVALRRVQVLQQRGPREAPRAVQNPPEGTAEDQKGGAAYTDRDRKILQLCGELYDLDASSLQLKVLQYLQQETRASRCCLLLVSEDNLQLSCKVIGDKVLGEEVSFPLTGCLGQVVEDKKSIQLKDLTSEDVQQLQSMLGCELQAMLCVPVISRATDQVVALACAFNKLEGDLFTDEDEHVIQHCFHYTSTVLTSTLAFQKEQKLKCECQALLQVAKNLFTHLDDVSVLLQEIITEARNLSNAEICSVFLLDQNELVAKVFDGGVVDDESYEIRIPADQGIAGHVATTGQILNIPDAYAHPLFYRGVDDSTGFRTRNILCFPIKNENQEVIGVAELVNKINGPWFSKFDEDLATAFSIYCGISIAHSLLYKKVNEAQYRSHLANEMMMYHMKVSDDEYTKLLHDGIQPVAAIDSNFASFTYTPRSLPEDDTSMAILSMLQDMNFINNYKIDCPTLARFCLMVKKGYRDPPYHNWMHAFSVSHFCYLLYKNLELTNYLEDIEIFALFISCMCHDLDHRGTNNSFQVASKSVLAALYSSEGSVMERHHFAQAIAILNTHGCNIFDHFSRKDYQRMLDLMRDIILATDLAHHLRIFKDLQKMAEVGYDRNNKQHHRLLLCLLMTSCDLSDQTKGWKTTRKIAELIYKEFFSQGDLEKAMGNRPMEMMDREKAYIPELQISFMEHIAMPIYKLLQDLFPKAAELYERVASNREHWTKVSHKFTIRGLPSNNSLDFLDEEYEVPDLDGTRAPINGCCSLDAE

SMILES | pIC50 [1] | other results
CCCCn1c2c(c3ccc(OC)cc31)CCn1c-2nc2ccccc2c1=O | 5.04 | 
CCCCn1c2c(c3ccc(O)cc31)CCn1c-2nc2ccccc2c1=O | 6.20 | 
CCCn1c2c(c3ccc(OC)cc31)CCn1c-2nc2ccccc2c1=O | 4.92 | 
CCn1c2c(c3c(O)cc(O)cc31)CCn1c-2nc2ccccc2c1=O | 6.01 | 
CCn1c2c(c3ccc(OC)cc31)CCn1c-2nc2ccccc2c1=O | 4.93 | 
CCn1c2c(c3c(OC)cc(OC)cc31)CCn1c-2nc2ccccc2c1=O | 4.32 | 
CCCn1c2c(c3ccc(O)cc31)CCn1c-2nc2ccccc2c1=O | 5.88 | 
COc1ccc2c3c([nH]c2c1)-c1nc2ccccc2c(=O)n1CC3 | 4.66 | 
CCCc1nn(C)c2c(=O)[nH]c(-c3cc(S(=O)(=O)N4CCN(C)CC4)ccc3OCC)nc12 |  | Ratio IC50 (Homo sapiens [5]): 10
CCCn1c2c(c3ccccc31)CCn1c-2nc2ccccc2c1=O | 5.77 | 
CCn1c2c(c3ccc(O)cc31)CCn1c-2nc2ccccc2c1=O | 6.01 | 
COc1cc(OC)c2c3c(n(CCC(C)C)c2c1)-c1nc2ccccc2c(=O)n1CC3 | 4.74 | 
O=c1c2ccccc2nc2n1CCc1c-2[nH]c2cc(O)ccc12 | 5.87 | 
CCn1c2c(c3ccccc31)CCn1c-2nc2ccccc2c1=O | 5.95 | 
COc1cc2c(cc1OC)C(=O)C(CC1CCN(Cc3ccccc3)CC1)C2 (stereo not drawn) [DONEPEZIL] | < 4.00 | 
CCCn1c2c(c3c(OC)cc(OC)cc31)CCn1c-2nc2ccccc2c1=O | 4.70 | 
COc1cc(OC)c2c3c([nH]c2c1)-c1nc2ccccc2c(=O)n1CC3 | 4.34 | 
O=c1c2ccccc2nc2n1CCc1c-2[nH]c2cc(O)cc(O)c12 | 6.10 | 

The remaining compounds from weak to strong by pIC50 [1], led by results:

pIC50 [1] | SMILES | other results
4.69 | CCCCn1c2c(c3c(OC)cc(OC)cc31)CCn1c-2nc2ccccc2c1=O | 
5.21 | COc1ccc2c3c(n(CCC(C)C)c2c1)-c1nc2ccccc2c(=O)n1CC3 | 
5.91 | O=c1c2ccccc2nc2n1CCc1c-2[nH]c2ccccc12 [RUTAECARPINE] | 
5.95 | CCCCn1c2c(c3ccccc31)CCn1c-2nc2ccccc2c1=O | 
6.21 | CC(C)CCn1c2c(c3ccccc31)CCn1c-2nc2ccccc2c1=O | 
6.48 | CCCn1c2c(c3c(O)cc(O)cc31)CCn1c-2nc2ccccc2c1=O | 
6.59 | CCCCn1c2c(c3c(O)cc(O)cc31)CCn1c-2nc2ccccc2c1=O | 
6.96 | CC(C)CCn1c2c(c3ccc(O)cc31)CCn1c-2nc2ccccc2c1=O | 
7.07 | CC(C)CCn1c2c(c3c(O)cc(O)cc31)CCn1c-2nc2ccccc2c1=O | Activity (Mus musculus [2]): Active; Activity (Mus musculus [3]): Active; Ratio IC50 (Homo sapiens [4]): > 5000; Ratio IC50 (Homo sapiens [5]): > 500; IC50 (Phosphodiesterase 4): > 500 µM; Ratio IC50 (Homo sapiens [6]): > 5000; IC50 (Phosphodiesterase 6): 43.8 µM; pIC50 [7]: 4.49; Ratio IC50 (Homo sapiens [8]): > 5000; pIC50 [9]: < 3.30; pIC50 [10]: < 3.30
